Data from patent publication US4450269A, “Mono-5-substituted-3-chloro-4H-1,2,6-thiadiazin-4-one antifungal agents” (FMC Corporation, priority 1980, dated 1984).
Read-outs that look alike come from different tables or passages of the source.

Columns and labels:
Pythium ultimum = test: Mycelial growth test; assay type: cell-based; settings: Globisporangium ultimum, 72 h, PU, read-out: Percent Fungus Growth Inhibition
Uromyces phaseoli [1] = test: whole plant or invertebrate; settings: foliar, 24 h, read-out: Percent Disease Control, curative, bean rust
Rhizoctonia solani = test: Mycelial growth test; assay type: cell-based; settings: Rhizoctonia solani, 72 h, RS, read-out: Percent Fungus Growth Inhibition
Excerpt: | RS = Rhizoctonia solani

Pyricularia oryzae [2] = test: microbe, parasite or virus in culture; assay type: cell-based; settings: Pyricularia oryzae, 72 h
Uromyces phaseoli [3] = test: whole plant or invertebrate; settings: foliar, read-out: Percent Disease Control, foliar, bean rust
Cercospora beticola = test: whole plant or invertebrate; settings: in Beta vulgaris, foliar, 24 h, read-out: Percent Disease Control, curative, sugar beet leaf spot
Fusarium solani [4] = test: Mycelial growth test; assay type: cell-based; settings: Fusarium solani, 72 h, PS, 72 hours, read-out: Percent Fungus Growth Inhibition
Alternaria solani = test: Mycelial growth test; assay type: cell-based; settings: Alternaria solani, 72 h, AS, read-out: Percent Fungus Growth Inhibition
Sclerotinia fructicola = test: Mycelial growth test; assay type: cell-based; settings: Sclerotinia, 72 h, SF, read-out: Percent Fungus Growth Inhibition
Excerpt: | SF = Sclerotinia fructicola

Fusarium solani [5] = test: Soil treatment, bean root rot; assay type: in vivo; settings: Fusarium solani, soil, 336 h; 150 ppm suspension, 3.8 mg active per pot; read-out: Percent Disease Control, seed/soil, bean root rot
Procedure: In a similar manner the soil around a bean seedling was drenched with a sufficient amount of 150 ppm suspension of test chemical to provide 3.8 mg active per pot. Twenty-four hours later the soil was inoculated with a suspension of minced mycelium of Fusarium solani. The inoculated plants were then placed in a greenhouse, evaluated after fourteen days, and percent control of root rot damage calculated. The results, reported in Table III, indicate only a few of the compounds tested are effective in treating Bean Root Rot but that these provide a high degree of control.

Phytophthora infestans = test: whole plant or invertebrate; assay type: in vivo; settings: Phytophthora infestans, in Solanum lycopersicum, foliar, read-out: Percent Disease Control, foliar, tomato late blight, 150 ppm, protective
Pyricularia oryzae [6] = test: whole plant or invertebrate; assay type: in vivo; settings: Pyricularia oryzae, foliar, 24 h, read-out: Percent Disease Control, curative, rice blast, 150 ppm, 24 hours after inoculation
Helminthosporium oryzae = test: Mycelial growth test; settings: Bipolaris oryzae, 72 h
Erysiphe polygoni = test: whole plant or invertebrate; settings: foliar, 24 h, read-out: Percent Disease Control, curative, bean powdery mildew

O=c1c(Cl)nsnc1Cl [Compound 1, 3,5-dichloro-4H--1,2,6-thiadiazin-4-one]
82%: inhibition at 10 ppm (Pyricularia oryzae [2]; read-out: Percent Fungus Growth Inhibition, PO, 10 ppm, 72 hours)
100%: inhibition at 10 ppm (Pythium ultimum; 10 ppm) | inhibition at 2.5 ppm (Rhizoctonia solani; 2.5 ppm) | inhibition at 10 ppm (Rhizoctonia solani; 10 ppm) | inhibition at 5 ppm (Fusarium solani [4]; 5 ppm) | inhibition at 10 ppm (Fusarium solani [4]; 10 ppm) | inhibition at 2.5 ppm (Alternaria solani; 2.5 ppm) | inhibition at 5 ppm (Alternaria solani; 5 ppm) | inhibition at 10 ppm (Alternaria solani; 10 ppm) | inhibition at 2.5 ppm (Sclerotinia fructicola; 2.5 ppm) | inhibition at 5 ppm (Sclerotinia fructicola; 5 ppm) | inhibition at 10 ppm (Sclerotinia fructicola; 10 ppm) | inhibition at 2.5 ppm (Helminthosporium oryzae; read-out: Percent Fungus Growth Inhibition, HO, 2.5 ppm, 72 hours) | inhibition at 5 ppm (Helminthosporium oryzae; read-out: Percent Fungus Growth Inhibition, HO, 5 ppm, 72 hours) | inhibition at 10 ppm (Helminthosporium oryzae; read-out: Percent Fungus Growth Inhibition, HO, 10 ppm, 72 hours)
85%: inhibition at 2.5 ppm (Fusarium solani [4]; 2.5 ppm)
64%: inhibition at 5 ppm (Rhizoctonia solani; 5 ppm)
0%: inhibition at 2.5 ppm (Pythium ultimum; 2.5 ppm) | inhibition at 5 ppm (Pythium ultimum; 5 ppm) | pest or weed control at 150 ppm (Uromyces phaseoli [1]) | pest or weed control at 150 ppm (Uromyces phaseoli [3]) | pest or weed control at 150 ppm (Cercospora beticola) | pest or weed control at 150 ppm, 3.8 mg/pot (Fusarium solani [5]) | pest or weed control at 150 ppm (Phytophthora infestans) | pest or weed control at 150 ppm (Pyricularia oryzae [6]) | pest or weed control at 150 ppm (Erysiphe polygoni)
27%: inhibition at 2.5 ppm (Pyricularia oryzae [2]; read-out: Percent Fungus Growth Inhibition, PO, 2.5 ppm, 72 hours)
42%: inhibition at 5 ppm (Pyricularia oryzae [2]; read-out: Percent Fungus Growth Inhibition, PO, 5 ppm, 72 hours)
